Marks after values point to notes of the source that are not given here.
Tests used:
[1] = Body weight and general state of castrated male rabbits during and after topical eye administration; settings: x ± s, n=5
Description: (§1) 5, 2014-Oct. […] Body weight was measured on the first day and the last day of the quarantine period. • 7 Grouping and Identifying Method for Experimental Animals • 7.1 Identifying method for animals • 7.1.1 Quarantine period: fed in separate cages, tag hung on each cage, and no marking of animals. • 7.1.2 Administration observation period: marked by staining with saturated picric acid solution, and 5 rabbits in each group were marked in the following ways, respectively: head, back, tail, head and back, and white. • 7.2 Grouping of experimental animals: after the quarantine period was finished, 5 rabbits were randomly selected according to the body weight and used in the normal control group, and the rest rabbits were used in the modeling group. […] 5, 2014-Aug. 11, 2014 • 9.3 Date of grouping: Aug. 12, 2014, Sep. 15, 2014 • 9.4 Date of modeling: Aug. 12, 2014 • 9.5 Administration time: Sep. 15, 2014 • 9.6 Animal sacrifice time: Oct. 27, 2014 • 9.2 Duration of administration: two consecutive weeks from Sep. 15, 2014 to Sep. […] An aseptic towel was spread out, testicles at two sides were sequentially squeezed into the scrotum from abdominal cavity and clenched to prevent them from sliding, a small opening was cut on the scrotum with a sterilized blade, the testicles were squeezed out by force, the spermatic vein and vas deferens were ligated, the testicles and epididymis were cut out, the scrotum skin was sutured, and iodine tincture was coated locally to prevent infection. • 11.2 Administration method: administration was started on day 35 after the operation, at a prescribed dose for 14 consecutive days. • 11.3 Detection indexes: for each group, basal tear secretion (Schirmer I test), corneal fluorescence staining (PI) and tear film break-up time (BUT) were detected before the modeling and on days 0, 7, and 14 after the administration by performing surface anesthesia. • 11.3.1 Basal tear secretion (Schirmer I test): the 5 mm forepart of a qualitative filter paper (35 mm×6 mm) was reversely folded and placed in the lower eyelid bitamporal conjunctival sac, and the tear infiltration length (including the reversely-folded segment) of the test paper after 5 min was detected and recorded. • 11.3.2 Scoring criteria for corneal fluorescence staining (PI): 1% fluorescein sodium was applied to both eyes of a rabbit without subsequent rinsing, and a slit-lamp microscope was used for observation.

[2] = system: dry eye syndrome caused by castration of male rabbits; test: Basal tear secretion (Schirmer I test) in castrated male rabbits; format: in vivo, Japanese big-ear white rabbit
Description: as §1

[3] = system: dry eye syndrome caused by castration of male rabbits; test: Corneal fluorescence staining (PI) score in castrated male rabbits; format: in vivo, Japanese big-ear white rabbit; settings: score 0-4, x ± s, n=5
Description: (§2) 5, 2014-Oct. […] Body weight was measured on the first day and the last day of the quarantine period. • 7 Grouping and Identifying Method for Experimental Animals • 7.1 Identifying method for animals • 7.1.1 Quarantine period: fed in separate cages, tag hung on each cage, and no marking of animals. • 7.1.2 Administration observation period: marked by staining with saturated picric acid solution, and 5 rabbits in each group were marked in the following ways, respectively: head, back, tail, head and back, and white. • 7.2 Grouping of experimental animals: after the quarantine period was finished, 5 rabbits were randomly selected according to the body weight and used in the normal control group, and the rest rabbits were used in the modeling group. […] 5, 2014-Aug. 11, 2014 • 9.3 Date of grouping: Aug. 12, 2014, Sep. 15, 2014 • 9.4 Date of modeling: Aug. 12, 2014 • 9.5 Administration time: Sep. 15, 2014 • 9.6 Animal sacrifice time: Oct. 27, 2014 • 9.2 Duration of administration: two consecutive weeks from Sep. 15, 2014 to Sep. […]

[4] = system: dry eye syndrome caused by castration of male rabbits; test: Histopathology examination of harderian gland and meibomian gland in castrated male rabbits; format: in vivo, Japanese big-ear white rabbit; settings: HE sections, in words
Description: as §2

[5] = topical to the eyes for 14 days
[6] = castrated male rabbits, topical to the eyes, Schirmer I 5 min, x ± s, n=5

For `CCC(=O)O[C@H]1CC[C@H]2[C@@H]3CCC4=CC(=O)CC[C@]4(C)[C@H]3CC[C@]12C` [Positive 2, testosterone propionate], the “Weight of rabbits, Day 7 after drug withdrawal” value [1, 5] was 3.0 ± 1.21 kg, the “Weight of rabbits, Day 14 after drug withdrawal” value [1, 5] was 3.3 ± 1.31 kg and the “Weight of rabbits, Day 21 after drug withdrawal” value [1, 5] was 3.6 ± 1.07 kg. For the same molecule, the “Weight of rabbits, Day 28 after drug withdrawal” value [1, 5] was 4.0 ± 1.20 kg, the “Weight of rabbits, Day 7 of administration” value ([1]; topical to the eyes) was 2.4 ± 1.10 kg and the “Weight of rabbits, Day 14 of administration” value ([1]; topical to the eyes) was 2.6 ± 1.05 kg. For the same molecule, the “Tear secretion, Day 28 after drug withdrawal” value ([2]; castrated male rabbits, topical to the eyes for 14 days, Schirmer I 5 min, x ± s, n=5) was 12.2 ± 3.48 mm, the “Tear secretion, Day 7 of administration” value [2, 6] was 12.7 ± 2.84 mm and the “Tear secretion, Day 14 of administration” value [2, 6] was 14.8 ± 3.17*^Δ▴ mm. The “Tear secretion, effect in words” value ([2]; castrated rabbits, compared with the model group and the solvent group (P<0.05)) was “increased markedly”, the “Corneal staining score, Day 28 after drug withdrawal” value [3, 5] was 3.0 ± 1.22 and the “Corneal staining score, Day 7 of administration” value ([3]; topical to the eyes) was 2.8 ± 0.22. For the same molecule, the “Corneal staining score, Day 14 of administration” value ([3]; topical to the eyes) was 2.2 ± 0.57*^Δ▴ and the “Histopathology of harderian gland and meibomian gland compared with the model group” value [4] was “marked ameliorating”.
